Laboratory results published in publication PMC6364906 (PLoS ONE, 2019).
Values after ≈ are worked out from the molar mass of the structure shown.

Columns and labels:
bacterial dipeptidases = settings: cited from earlier work
P. aeruginosa GRP-0036 = type: cell-based; settings: geometric mean, broth microdilution, MDR carbapenem resistant strain
Procedure: (§1) The statistical significance of the difference in geometric means of MIC and MBC was determined with the Mann-Whitney U test.

P. aeruginosa GRP-0049 = type: cell-based; settings: geometric mean, broth microdilution, MDR carbapenem susceptible strain
Procedure: as §1

P. aeruginosa GRP-0019 = type: cell-based; settings: geometric mean, broth microdilution, wild-type strain
Procedure: as §1

P. aeruginosa ATCC 27853 = assay: MIC/MBC by broth microdilution (CLSI); type: cell-based, Pseudomonas aeruginosa; settings: geometric mean, wild-type reference strain
Procedure: as §1

K. pneumoniae GRP-0107 = assay: MIC/MBC by broth microdilution (CLSI); type: cell-based, Klebsiella pneumoniae; settings: geometric mean, wild-type strain
Procedure: as §1

MIC [range] (P. aeruginosa GRP-0036)	MIC [range] (P. aeruginosa GRP-0049)	MIC [range] (P. aeruginosa GRP-0019)	MIC [range] (P. aeruginosa ATCC 27853)	MIC [range] (K. pneumoniae GRP-0107)	SMILES	inhibition of bacterial dipeptidases (bacterial dipeptidases)
–	–	–	–	–	CC1(C)C[C@@H]1C(=O)N/C(=C\CCCCSC[C@H](N)C(=O)O)C(=O)O [cilastatin]	very inefficient inhibitor
8 µg/mL (≈ 26.7 µM)	1.2 µg/mL (≈ 4.01 µM)	0.5 µg/mL (≈ 1.67 µM)	1.0 µg/mL (≈ 3.34 µM)	0.5 µg/mL (≈ 1.67 µM)	C[C@@H](O)[C@H]1C(=O)N2C(C(=O)O)=C(SCCN=CN)C[C@H]12 [imipenem]	–
